Test results reported in patent US10392347B2, “2,4-dihydroxy-nicotinamides as APJ agonists” (BRISTOL-MYERS SQUIBB COMPANY, priority 2015, dated 2019).
Read-outs that look alike come from different tables or passages of the source.

Biological target: T1, human APJ receptor (Homo sapiens, UniProt P35414)
T1 construct: expressed in transfected cells
T1 sequence (P35414 1-380): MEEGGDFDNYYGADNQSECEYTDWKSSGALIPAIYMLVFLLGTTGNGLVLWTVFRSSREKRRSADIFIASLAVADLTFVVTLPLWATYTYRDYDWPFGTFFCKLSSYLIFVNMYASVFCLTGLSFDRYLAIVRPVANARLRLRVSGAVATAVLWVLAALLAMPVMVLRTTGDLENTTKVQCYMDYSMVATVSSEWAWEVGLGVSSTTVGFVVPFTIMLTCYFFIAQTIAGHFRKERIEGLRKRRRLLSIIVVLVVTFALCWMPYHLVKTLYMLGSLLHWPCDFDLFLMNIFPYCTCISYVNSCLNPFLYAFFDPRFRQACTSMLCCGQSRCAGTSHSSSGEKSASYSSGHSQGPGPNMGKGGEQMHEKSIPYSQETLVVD
Experiment: Intracellular cAMP accumulation assay (APJ hcAMP, HTRF)
Format: cell-based
Conditions: HEK293 cells stably expressing human APJ
Procedure: Intracellular cAMP Accumulation Assay
HEK293 cells stably expressing human APJ receptor were used to assess the activity of compounds. Cultured cells were detached and resuspended in the cAMP Homogeneous Time-Resolved Fluorescence (HTRF) assay buffer (Cisbio cat; #62AM4PEJ). […] Serial dilutions of a compound together with assay buffer containing […] and 2 μM forskolin were added to each well containing 5,000 cells and incubated for 30 minutes at room temperature. Subsequently, cAMP D2 reagent was added in the lysis buffer followed by the EuK antibody (Cisbio; cat #62AM4PEJ) and incubated for 60 min. The fluorescence emission ratio was measured using fluorometer. The intracellular cAMP concentrations (compound-stimulated inhibition of forskolin-mediated cAMP production) were calculated by extrapolation from a standard curve using known cAMP concentrations. The EC50 values were obtained by fitting the data to a sigmoidal concentration-response curve with variable slope.
The EC50 value of each compound is presented at the end of the example description.
The biological activity of the exemplified compounds of this invention determined by the assay described above is shown at the end of each example.

[1] = Table 1, forskolin-stimulated cAMP, read-out: APJ cAMP EC50
[2] = Table 3, forskolin-stimulated cAMP, read-out: APJ cAMP EC50

Row | SMILES | EC50 [1] [nM] | EC50 [2] [nM] | further results
1 | CCCCc1nc(O)c(C(=O)N2CCC(c3ccccc3)CC2)c(O)c1-c1c(OC)cccc1OC [Example 62, 6-butyl-5-(2,6-dimethoxyphenyl)-3-(4-phenylpiperidine-1-carbonyl)pyridine-2,4-diol] | 10 to 100 |  | 
2 | CCCCc1nc(O)c(C(=O)N2CCN(C3CCCCC3)CC2)c(O)c1-c1c(OC)cccc1OC [Example 63, 6-butyl-3-(4-cyclohexylpiperazine-1-carbonyl)-5-(2,6-dimethoxyphenyl)pyridine-2,4-diol] | 10 to 100 |  | 
3 | CCCCc1nc(O)c(C(=O)N2CCC3(CC2)OCc2ccccc23)c(O)c1-c1c(OC)cccc1OC [Example 64, 6-butyl-5-(2,6-dimethoxyphenyl)-3-({3H-spiro[2-benzofuran-1,4′-piperidine]-1′-yl}carbonyl)pyridine-2,4-diol] | 10 to 100 |  | 
4 | CCCCc1nc(O)c(C(=O)N2CCC(c3noc4cc(F)ccc34)CC2)c(O)c1-c1c(OC)cccc1OC [Example 65, 6-butyl-5-(2,6-dimethoxyphenyl)-3-[4-(6-fluoro-1,2-benzoxazol-3-yl)piperidine-1-carbonyl]pyridine-2,4-diol] | 10 to 100 |  | 
5 | CCCCc1nc(O)c(C(=O)N2CCC3(CC2)CC(=O)Nc2ccccc23)c(O)c1-c1c(OC)cccc1OC [Example 66, 1-[6-butyl-5-(2,6-dimethoxyphenyl)-2,4-dihydroxypyridine-3-carbonyl]-2′,3′-dihydro-1′H-spiro[piperidine-4,4′-quinoline]-2′-one] | 10 to 100 |  | 
6 | CCCCc1nc(O)c(C(=O)N2CCC(c3cc(-c4ccccc4)[nH]n3)CC2)c(O)c1-c1c(OC)cccc1OC [Example 67, 6-butyl-5-(2,6-dimethoxyphenyl)-3-[4-(5-phenyl-1H-pyrazol-3-yl)piperidine-1-carbonyl]pyridine-2,4-diol] | 100 to 300 |  | 
7 | CCCCc1nc(O)c(C(=O)N2CCN(c3ccc(Cl)cc3)CC2)c(O)c1-c1c(OC)cccc1OC [Example 68, 6-butyl-3-[4-(4-chlorophenyl)piperazine-1-carbonyl]-5-(2,6-dimethoxyphenyl)pyridine-2,4-diol] | 10 to 100 |  | 
8 | CCCCc1nc(O)c(C(=O)N2CCC(c3nc(-c4cccnc4)no3)CC2)c(O)c1-c1c(OC)cccc1OC [Example 69, 6-butyl-5-(2,6-dimethoxyphenyl)-3-{4-[3-(pyridin-3-yl)-1,2,4-oxadiazol-5-yl]piperidine-1-carbonyl}pyridine-2,4-idiol] | 10 to 100 |  | 
9 | CCOCc1nc(O)c(C(=O)N2CC[C@H](c3ccccc3)C2)c(O)c1-c1c(OC)cc(F)cc1OC [Example 70] |  |  | EC50 (read-out: Human APJ cAMP EC50 Potency range): 10 to 100 nM

The next lines start with results.

Row | EC50 [1] [nM] | EC50 [2] [nM] | SMILES | further results
10 |  | 0.01 to 10 | CCCCc1nc(O)c(C(=O)N2CCC(c3ccc(Cl)cn3)C2)c(O)c1-c1c(OC)cccc1OC (centres unmarked) [Example 75, 6-butyl-3-[3-(5-chloropyridin-2-yl)pyrrolidine-1-carbonyl]-5-(2,6-dimethoxyphenyl)pyridine-2,4-diol] | 
11 |  | 0.01 to 10 | CCOCc1nc(O)c(C(=O)N2CCC(c3ccc(Cl)cn3)C2)c(O)c1-c1c(OC)cccc1OC (centres unmarked) [Example 76, 3-[3-(5-chloropyridin-2-yl)pyrrolidine-1-carbonyl]-5-(2,6-dimethoxyphenyl)-6-(ethoxymethyl)pyridine-2,4-diol] | 
12 |  | 0.01 to 10 | CCOCc1nc(O)c(C(=O)N2CCC(c3ccc(Cl)cn3)C2)c(O)c1-c1c(OC)cccc1OC (centres unmarked) [Example 77, 3-[3-(5-chloropyridin-2-yl)pyrrolidine-1-carbonyl]-5-(2,6-dimethoxyphenyl)-6-(ethoxymethyl)pyridine-2,4-diol] | 
13 |  | 0.01 to 10 | CCCCc1nc(O)c(C(=O)N2CCC(c3ncccc3F)C2)c(O)c1-c1c(OC)cccc1OC (centres unmarked) [Example 78, 6-butyl-5-(2,6-dimethoxyphenyl)-3-[3-(3-fluoropyridin-2-yl)pyrrolidine-1-carbonyl]pyridine-2,4-diol] | 
14 |  | 0.01 to 10 | CCCCc1nc(O)c(C(=O)N2CCC(c3ccc(F)cn3)C2)c(O)c1-c1c(OC)cccc1OC (centres unmarked) [Example 79, 6-butyl-5-(2,6-dimethoxyphenyl)-3-[3-(5-fluoropyridin-2-yl)pyrrolidine-1-carbonyl]pyridine-2,4-diol] | 
